Each structure is given as a SMILES string.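 Each compound was tested at five concentrations against cells in 96-well plates for 48 hours. GI50 is the concentration that inhibits growth by half. The concentration for full growth arrest is given as TGI.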

Holding throughout (assay): growth of human tumour cells (NCI), 48 h
For assay [1], the system named is A498 renal.
In assay [2] the test system is KM12 colon.
Assay [3] concerns MDA-MB-231 breast.
Assay [4] relates to NCI-H226 lung.
The subject of assay [5] is OVCAR-4 ovarian.
Assay [6] relates to RPMI-8226 leukemia.
Assay [7] relates to SK-MEL-28 melanoma.
Assay [8] has as its system SK-MEL-5 melanoma.
The test system of assay [9] is SW-620 colon.
For assay [10], the system named is T-47D breast.

Consider `Cc1ccc(N(Cc2ccccc2)Cc2ccccc2)cc1`, for which the TGI is over 100 µM in assay [1]; over 100 µM in assay [2]; over 100 µM in [3]; over 100 µM in assay [4]; over 100 µM in [5]; 43.6 µM in [6]. For the same compound, the TGI in assay [7], in assay [8], in [9] and in [10] was over 100 µM throughout.

Regarding `CC(C)=CCC[C@@H](C)c1c(O)c(O)c(C)c2nccnc12`, the TGI in assay [1] was over 86.1 µM; in [2] it was over 72 µM; in assay [3], over 100 µM; in assay [4] it was 37.1 µM; in assay [5], over 100 µM; in [6], over 62.7 µM. Further, the TGI was over 100 µM in [7], 18.9 µM in assay [8], over 100 µM in assay [9] and over 79.8 µM in assay [10].

Take `Cc1ccc(NC(=O)c2ccc(OP(=O)(O)Nc3ccc(C)cc3)cc2)cc1`: the TGI in assay [1], in [2], in assay [3], in [4], in assay [5] and in [6] was over 100 µM in each case. Moreover, the TGI in [7], in [8], in assay [9] and in assay [10] was over 100 µM throughout.

Regarding `Cc1cccc(Cn2c3c(c4cc(O)ccc42)C(=O)c2ccccc2C3=O)c1`, the TGI was over 100 µM in assay [1]; over 100 µM in assay [2]; over 70.8 µM in [3]; over 100 µM in assay [4]; 4.57 µM in assay [5]; over 30.6 µM in assay [6]. Also, the TGI in [7], in [8], in assay [9] and in assay [10] was over 100 µM throughout.

`NC1(c2cc3ccccc3s2)CCCC1`: the TGI in assay [1] is over 100 µM; in assay [2], over 100 µM; in assay [3], over 100 µM; in [4], over 100 µM; in assay [5], over 100 µM; in assay [6] it was 34.4 µM. Besides, the TGI in [7] is 48.1 µM; in assay [8] it was 68.2 µM; in assay [9], over 100 µM; in assay [10] it was over 100 µM.

In the case of `Cc1ccnc(NS(=O)(=O)c2ccc(N=[N+]=[N-])cc2)n1`, the TGI in assay [1], in assay [2], in [3], in assay [4], in assay [5] and in assay [6] was over 100 µM throughout. In addition, the TGI in assay [7], in [8], in [9] and in [10] was over 100 µM throughout.

Turning to `Cc1ccc(-c2csc(=Nc3ccccc3)n2NC(=O)c2ccncc2)cc1`, the TGI was over 100 µM in assay [1]; over 100 µM in [2]; over 100 µM in [3]; over 75.2 µM in assay [4]; over 100 µM in assay [5]; 75.8 µM in assay [6]. Further, the TGI was over 100 µM in [7], 34.8 µM in [8], over 100 µM in assay [9] and 58.7 µM in [10].

For `CC(=O)c1c2c(c3ccccc3c1O)O[C@@H]1OCC[C@H]21`, the TGI in [1], in assay [2], in assay [3], in assay [4], in assay [5] and in [6] was over 100 µM each time. The TGI in assay [7], in [8], in assay [9] and in assay [10] was over 100 µM throughout.

As for `CCCCCC1=CC(=O)C1(Cl)Cl`, the TGI in assay [1] turned out to be 43.3 µM; in assay [2], 27.9 µM; in assay [3] it was 31 µM; in assay [4], 41.5 µM; in assay [5] it was 38.1 µM; in assay [6], 7.87 µM. In addition, the TGI in assay [7] is 36.8 µM; in assay [8], 24 µM; in assay [9], 40.5 µM; in assay [10], over 52.2 µM.

`O=c1[nH]c(=S)[nH]c2c1C(c1ccc([N+](=O)[O-])cc1)c1c([nH]c(=S)[nH]c1=O)O2`: the TGI in assay [1], in assay [2], in assay [3], in assay [4], in assay [5] and in assay [6] was over 100 µM throughout. Moreover, the TGI in assay [7], in assay [8], in assay [9] and in assay [10] was over 100 µM in each case.

On to `N#CC(NCc1cccc(CNC(C#N)c2ccccc2)c1)c1ccccc1` (stereo not given), for which the TGI in assay [1] is over 100 µM; in assay [2], 56.6 µM; in [3], 74.2 µM; in assay [4], over 100 µM; in assay [5], over 100 µM; in assay [6] it was 65.4 µM. Further, the TGI was 33.8 µM in assay [7], over 100 µM in assay [8], 61.4 µM in assay [9] and over 100 µM in assay [10].

On to `COc1ccc(N=NC(=Nc2ccccc2)c2ccc(N(CCC#N)CCC#N)cc2)cc1`, for which the TGI in assay [1] is over 100 µM; in assay [2], over 100 µM; in [3], 59.7 µM; in [4], over 100 µM; in [5] it was over 100 µM; in assay [6] it was over 100 µM. In addition, the TGI in assay [7], in [8], in assay [9] and in [10] was over 100 µM throughout.

For the compound `C[C@]12CCC3C4=C(CCC3C1CCC2=O)C(=O)[C@H]1O[C@H]1C4=O` (stereo not given in full), the TGI in [1] is 31.1 µM; in assay [2] it was 18.3 µM; in assay [3] it was 3.64 µM; in assay [4] it was 4.99 µM; in [5], 7.96 µM; in assay [6], 4.25 µM. Also, the TGI in assay [7] came out at 25.4 µM; in assay [8], 23.9 µM; in assay [9] it was 4.98 µM; in assay [10] it was 2.78 µM.

On to `O=C(C1OC1c1ccc(Br)cc1O)C12CC3CC(CC(C3)C1)C2` (stereo not given), for which the TGI in [1] was over 100 µM; in assay [2], 41.4 µM; in assay [3] it was 43.6 µM; in assay [4] it was over 100 µM; in assay [5], 81.4 µM; in [6], 47.5 µM. Moreover, the TGI is 46.8 µM in assay [7], 56.8 µM in [8], 35.4 µM in assay [9] and over 100 µM in assay [10].

For `Cc1ccccc1C(=N)c1ccccc1Cc1cccc2ccccc12`, the TGI in assay [1] is 95 µM; in [2], 41.9 µM; in assay [3], over 100 µM; in assay [4], 45 µM; in assay [5], over 100 µM; in assay [6], 33.3 µM. For the same compound, the TGI in assay [7] was 54.1 µM; in assay [8], 34.5 µM; in [9] it was 66 µM; in assay [10], 38.4 µM.

Turning to `CCOC(=O)N1CCN(Cc2cc(=O)n3ccc(C)cc3n2)CC1`, the TGI in assay [1], in assay [2], in assay [3], in assay [4], in assay [5] and in [6] was over 100 µM in each case. Moreover, the TGI in assay [7], in assay [8], in assay [9] and in assay [10] was over 100 µM in each case.

As to `CC(=O)N(C(=O)CC(=O)N1N=C(c2ccccc2)C(N=Nc2ccccc2[N+](=O)[O-])C1=O)c1ccc(Cl)cc1` (stereo not given), the TGI in [1], in assay [2], in assay [3], in [4], in assay [5] and in [6] was over 10 µM in each case. Moreover, the TGI in assay [7], in [8], in [9] and in assay [10] was over 10 µM each time.

Consider `c1ccc2c(c1)Cn1c-2nc2ccccc21`, for which the TGI in [1], in assay [2], in assay [3], in [4], in assay [5] and in [6] was over 100 µM each time. The TGI in assay [7], in assay [8], in assay [9] and in [10] was over 100 µM each time.

Turning to `COc1ccc(CN2C(=O)/C(=C\c3cc(OC)c(OC)c(OC)c3)c3ccccc32)cc1`, the GI50 in [1] was 2.79 µM; in assay [2], 1.89 µM; in assay [3], 3.34 µM; in assay [4], 2.96 µM; in assay [5], 3.25 µM; in [6] it was 2.47 µM. The GI50 in assay [7] was 1.82 µM; in assay [8] it was 2.51 µM; in assay [9], 2.15 µM; in assay [10] it was 2.06 µM. For the same compound, the TGI in [1] was 14.3 µM; in assay [2] it was 3.57 µM; in [3], over 100 µM; in assay [4], 9.23 µM; in assay [5], over 100 µM; in [6] it was 7.57 µM. In addition, the TGI in assay [7] amounted to 3.74 µM; in assay [8], 6.63 µM; in assay [9] it was 4.85 µM; in assay [10], 7.31 µM.

For `C#CCn1c(=O)c2ccccc2n(CC#C)c1=O`, the TGI in assay [1], in assay [2], in assay [3], in assay [4], in assay [5] and in assay [6] was over 10 µM throughout. Besides, the TGI in assay [7], in assay [8], in [9] and in [10] was over 10 µM each time.

The values are drawn from PubChem BioAssay (NCI).
